{"source": "patent US7084248B2", "about": "“Peptide composition and method for delivering substances into the cytosol of cells” (Gene Tools, LLC, priority 2004, dated 2006)", "test_system": "cultured animal cells", "test": "Functional assay of cytosolic delivery of a Morpholino antisense oligo (splice-correction luciferase system)", "format": "cell-based", "details": "all-histidine peptides", "from_the_text": "In contrast to the above design flexibility, the respective sizes of the lipophilic and weak-base faces of the delivery peptide have a substantial impact on that peptide's delivery efficiency. […] These assays utilized an established functional measurement of cytosolic delivery of a Morpholino antisense oligo in cultured cells (Kang, 1998). A representative test procedure of this type is described in Example 6, in a later section of his application.\nThe most definitive assessment of cytosolic delivery is one wherein when a cargo is delivered into the cytosol of a cell it generates a quantifiable signal proportional to the amount of cargo delivered into the cytosol. Also, for definitive results, that cargo should be completely stable within the cytosol so that increases due to delivery are not underestimated due to losses from degradation.\nIn the Kole test system (commercially available from GENE TOOLS, LLC, Philomath, Oreg.) a cell line has been stably transfected with a gene that codes for an RNA transcript that includes a mutation that generates a splicing error which acts to prevent the translation of luciferase coded by that RNA transcript. […] This leads to normal translation of the luciferase, and the light emission from that luciferase is readily quantitated in a luminometer. […]", "data": [{"substance": "poly-histidine", "values": [{"measurement": "delivery of a Morpholino antisense oligo into the cytosol of cultured animal cells", "value": "neither poly-histidine nor defined-length oligo-histidines achieved significant delivery"}]}]}
